Test results reported in paper PMC7023430, “4-Aminobenzoic Acid Derivatives: Converting Folate Precursor to Antimicrobial and Cytotoxic Agents” (Biomolecules, 2019).
pIC50: −log10 of the molar value. Converted amounts (≈) assume the structure as drawn. Like-named read-outs stand apart in the source and are kept apart here.

How the values were obtained:
[1] = system: M. kansasii 6509/96 (clinical isolate); test: Antimycobacterial micromethod in Šula's medium, M. kansasii 6509/96; type: cell-based; conditions: Mycobacterium kansasii
[2] = system: Trichophyton interdigitale 445; test: Antifungal microdilution broth method, T. interdigitale; type: cell-based
Outline: (§1)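 Duplicate microdilution tests in RPMI-1640 (2% glucose, L-glutamine, MOPS, pH 7.0) with twofold compound dilutions from DMSO gave visually determined MICs. Results counted only when duplicates agreed to within one step; protocol adapted from EUCAST.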

[3] = system: Candida glabrata 20/I; test: Antifungal microdilution broth method, C. glabrata; type: cell-based; conditions: Nakaseomyces glabratus
Outline: as §1

[4] = system: Mycobacterium avium 330/88; test: Antimycobacterial micromethod in Šula's medium, M. avium; type: cell-based
[5] = system: Trichosporon asahii 1188; test: Antifungal microdilution broth method, T. asahii; type: cell-based
Outline: as §1

[6] = system: Candida albicans ATCC 44859; test: Antifungal microdilution broth method, C. albicans; type: cell-based
Outline: as §1

[7] = system: Aspergillus fumigatus 231; test: Antifungal microdilution broth method, A. fumigatus; type: cell-based
Outline: as §1

[8] = system: Candida krusei E28; test: Antifungal microdilution broth method, C. krusei; type: cell-based; conditions: Pichia kudriavzevii
Outline: as §1

[9] = system: Staphylococcus epidermidis H 6966/08; test: Antibacterial microdilution broth method, S. epidermidis; type: cell-based; conditions: Staphylococcus epidermidis, H6966/08
[10] = system: Enterococcus faecalis ATCC 29212, CCM 4224; test: Antibacterial microdilution broth method, E. faecalis; type: cell-based; conditions: Enterococcus faecalis
[11] = system: methicillin-resistant Staphylococcus aureus ATCC 43300, CCM 4750 (MRSA); test: Antibacterial microdilution broth method, MRSA; type: cell-based; conditions: Staphylococcus aureus
[12] = system: Escherichia coli ATCC 25922, CCM 3954; test: Antibacterial microdilution broth method, E. coli; type: cell-based; conditions: Escherichia coli
[13] = system: Mycobacterium kansasii 235/80; test: Antimycobacterial micromethod in Šula's medium, M. kansasii 235/80; type: cell-based
[14] = system: HepG2 cells; test: Cytotoxicity, CellTiter 96 assay; type: cell-based, human; conditions: 24 h incubation
Method: HepG2, human hepatocellular carcinoma cells (ATCC HB-8065; passage 5–8) purchased from Health Protection Agency Culture Collections (ECACC, Salisbury, UK) were cultured in Minimum Essentials Eagle Medium supplemented with 10% fetal bovine serum, 1% L-glutamine solution and non-essential amino acid solution (Sigma-Aldrich, St. Louis, MO, USA) in a humidified atmosphere containing 5% CO2 at 37 °C. For subculturing, the cells were harvested after trypsin/EDTA (Sigma-Aldrich, St. Louis, USA) treatment at 37 °C. To evaluate cytotoxicity, the cells treated with the tested substances were used as experimental groups whereas untreated HepG2 cells served as control groups.
The cells were seeded in a density of 10 000 cells per well in a 96-well plate. The following day the cells were treated with each of the tested substances dissolved in DMSO (maximal incubation concentration of DMSO was 1% v/v). The tested substances were prepared at different incubation concentrations in triplicates according to their solubility. Simultaneously, the controls representing 100% cell viability, 0% cell viability (the cells treated with 10% DMSO), no cell control and vehiculum controls were also involved in triplicates. After 24 h incubation in a humidified atmosphere containing 5% CO2 at 37 °C, the reagent from the kit CellTiter 96 AQueous One Solution Cell Proliferation Assay (CellTiter 96; Promega, Fitchburg, WI, USA) was added. After 2 h incubation at 37 °C absorbance of samples was recorded at 490 nm (TECAN, Infinita M200, Grödig, Austria). A standard toxicological parameter IC50 was calculated by nonlinear regression from a semilogarithmic plot of incubation concentration versus percentage of absorbance relative to untreated controls using GraphPad Prism software (version 6; GraphPad Software, Inc., La Jolla, CA, USA).
The CellTiter 96 assay used is based on the reduction of tetrazolium dye in living cells to formazan, which is then determined colorimetrically. This reduction is related to availability of NADH or NADPH. The decline in levels of these metabolically important compounds in the cell causes that the production of formazan is reduced. For quantitative comparison of cytotoxicity, the parameter IC50 was used.

[15] = system: ESBL-positive Klebsiella pneumoniae J 14368/08
[16] = system: Lichtheimia corymbifera 272; test: Antifungal microdilution broth method, L. corymbifera; type: cell-based
Outline: as §1

[17] = 168 h, 7 days incubation at 37 °C, read-out: MIC M. kansasii 6509/96 7 d
[18] = 336 h, 14 days incubation at 37 °C, read-out: MIC M. kansasii 6509/96 14 d
[19] = 504 h, 21 days incubation at 37 °C, read-out: MIC M. kansasii 6509/96 21 d
[20] = 330/88, 336 h, 14 days incubation at 37 °C, read-out: MIC M. avium 330/88 14 d
[21] = 330/88, 504 h, 21 days incubation at 37 °C, read-out: MIC M. avium 330/88 21 d
[22] = ATCC44859, 24 h, read-out: MIC CA 24 h
[23] = ATCC44859, 48 h, read-out: MIC CA 48 h
[24] = S. epidermidis, 24 h incubation, read-out: MIC SE 24 h
[25] = S. epidermidis, 48 h incubation, read-out: MIC SE 48 h
[26] = 24 h incubation, read-out: MIC EF 24 h
[27] = 48 h incubation, read-out: MIC EF 48 h
[28] = 24 h incubation, read-out: MIC MRSA 24 h
[29] = 48 h incubation, read-out: MIC MRSA 48 h
[30] = 24 h incubation, read-out: MIC EC 24 h
[31] = 48 h incubation, read-out: MIC EC 48 h
[32] = 235/80, 168 h, 7 days incubation at 37 °C, read-out: MIC M. kansasii 235/80 7 d
[33] = 235/80, 336 h, 14 days incubation at 37 °C, read-out: MIC M. kansasii 235/80 14 d
[34] = 235/80, 504 h, 21 days incubation at 37 °C, read-out: MIC M. kansasii 235/80 21 d

Compound | MIC [1, 17] [µM] | MIC [1, 18] [µM] | MIC [1, 19] [µM] | MIC ([2]; 72 h, read-out: MIC TI 72 h) [µM] | MIC ([2]; 120 h, read-out: MIC TI 120 h) [µM] | MIC ([3]; 24 h, read-out: MIC CG 24 h) [µM] | MIC ([3]; 48 h, read-out: MIC CG 48 h) [µM] | MIC [4, 20] [µM] | MIC [4, 21] [µM] | MIC ([5]; 24 h, read-out: MIC TA 24 h) [µM] | MIC ([5]; 48 h, read-out: MIC TA 48 h) [µM] | MIC [6, 22] [µM] | MIC [6, 23] [µM] | MIC ([7]; 24 h, read-out: MIC AF 24 h) [µM] | MIC ([7]; 48 h, read-out: MIC AF 48 h) [µM] | MIC ([8]; 24 h, read-out: MIC CK 24 h) [µM] | MIC ([8]; 48 h, read-out: MIC CK 48 h) [µM] | MIC [9, 24] [µM] | MIC [9, 25] [µM] | MIC [10, 26] [µM] | further results
COc1ccc(O)c(C=Nc2ccc(C(=O)O)cc2)c1 [1h, 4-[(2-Hydroxy-5-methoxybenzylidene)amino]benzoic acid] | 500 (≈ 136 µg/mL) | 500 (≈ 136 µg/mL) | 500 (≈ 136 µg/mL) | > 500 | > 500 | 250 (≈ 67.8 µg/mL) | 250 (≈ 67.8 µg/mL) | 1000 (≈ 271 µg/mL) | 1000 (≈ 271 µg/mL) | 500 (≈ 136 µg/mL) | 500 (≈ 136 µg/mL) | 250 (≈ 67.8 µg/mL) | 250 (≈ 67.8 µg/mL) | > 500 | > 500 | 500 (≈ 136 µg/mL) | 500 (≈ 136 µg/mL) | 500 (≈ 136 µg/mL) | 500 (≈ 136 µg/mL) | > 500 | MIC ([9]; time not stated, read-out: MIC, S. epidermidis): ≥ 250 µM; MIC [10, 27]: > 500 µM; MIC [11, 28]: > 500 µM; MIC [11, 29]: > 500 µM; MIC [12, 30]: > 500 µM; MIC [12, 31]: > 500 µM; MIC [13, 32]: 500 µM (≈ 136 µg/mL); MIC [13, 33]: 500 µM (≈ 136 µg/mL); MIC [13, 34]: 500 µM (≈ 136 µg/mL); pIC50 [14]: 3.28; pIC50 ([14]; Homo sapiens, HepG2, 24 h): < 3.30; MIC KP-E 24 h [15]: >500 µM; MIC KP-E 48 h [15]: >500 µM; MIC ([16]; 24 h, read-out: MIC LC 24 h): > 500 µM; MIC ([16]; 48 h, read-out: MIC LC 48 h): > 500 µM
CC(C)(C)c1ccc(O)c(C=Nc2ccc(C(=O)O)cc2)c1 [1j, 4-{[5-(Tert-butyl)-2-hydroxybenzylidene]amino}benzoic acid] | 250 (≈ 74.3 µg/mL) | 250 (≈ 74.3 µg/mL) | 500 (≈ 149 µg/mL) | > 500 | > 500 | > 500 | > 500 | 1000 (≈ 297 µg/mL) | > 1000 | > 500 | > 500 | > 500 | > 500 | > 500 | > 500 | > 500 | > 500 | > 500 | > 500 | > 500 | MIC [10, 27]: > 500 µM; MIC [11, 28]: > 500 µM; MIC [11, 29]: > 500 µM; MIC [12, 30]: > 500 µM; MIC [12, 31]: > 500 µM; MIC [13, 32]: 125 µM (≈ 37.2 µg/mL); MIC [13, 33]: 125 µM (≈ 37.2 µg/mL); MIC [13, 34]: 250 µM (≈ 74.3 µg/mL); pIC50 ([14]; Homo sapiens, HepG2, 24 h): 4.09; MIC KP-E 24 h [15]: >500 µM; MIC KP-E 48 h [15]: >500 µM; MIC ([16]; 24 h, read-out: MIC LC 24 h): > 500 µM; MIC ([16]; 48 h, read-out: MIC LC 48 h): > 500 µM
